Experimental data published in ChEMBL document CHEMBL1123709, “Affinity labels for beta-adrenoceptors: preparation and properties of alkylating beta-blockers derived from indole” (J Med Chem, 1987).

Experiments:
Adrenergic receptor beta [1] = biological target: T1, Adrenergic receptor beta (Rattus norvegicus, UniProt P18090+P10608+P26255); experiment: Binding affinity against beta adrenergic receptor from rat heart tissues was determined; type: protein assay
Adrenergic receptor beta [2] = biological target: T1, Adrenergic receptor beta; experiment: Binding affinity against beta adrenergic receptor from rat lung tissues was determined; type: protein assay
Adrenergic receptor beta [3] = biological target: T1, Adrenergic receptor beta; experiment: Binding affinity against the [3H]dihydroalprenolol binding to beta adrenergic receptor of rat heart reticulocytes pretreated with alkylating beta-blockers
Adrenergic receptor beta [4] = biological target: T1, Adrenergic receptor beta; experiment: Binding affinity against the [3H]dihydroalprenolol binding to beta adrenergic receptor of rat lung reticulocytes pretreated with alkylating beta-blockers
[5] = biological target: T2, Adrenergic receptor beta (Rattus norvegicus) (UniProt P18090+P10608+P26255); experiment: Percent potency for irreversible blockade of the [3H]dihydroalprenolol binding to beta adrenergic receptor of rat heart reticulocytes pretreated with alkylating beta blockers at concentration of 1 x 10e-6 M
[6] = biological target: T2, Adrenergic receptor beta (Rattus norvegicus); experiment: Concentration of binding sites of protein for [3H]dihydroalprenolol binding sites on beta adrenergic receptor of rat heart reticulocytes was determined
[7] = biological target: T2, Adrenergic receptor beta (Rattus norvegicus); experiment: Percent potency for irreversible blockade of the [3H]dihydroalprenolol binding to beta adrenergic receptor of rat heart reticulocytes pretreated with alkylating beta blockers at concentration of 1 x 10e-7 M
Adrenergic receptor beta [8] = biological target: T1, Adrenergic receptor beta; experiment: Binding affinity against the [3H]dihydroalprenolol binding sites on beta adrenergic receptor of rat heart reticulocytes pretreated with alkylating beta-blockers

SMILES | Ki (Adrenergic receptor beta [1]) [nM] | Ki (Adrenergic receptor beta [2]) [nM] | Kd (Adrenergic receptor beta [3]) [nM] | Kd (Adrenergic receptor beta [4]) [nM] | Blockade [5] [%] | Bmax (fM (mg of protein)-1) [6] | Blockade [7] [%] | Kd (Adrenergic receptor beta [8]) [nM]
C=CCc1ccccc1OCC(O)CNC(C)(C)C1CCC(C)(NC(=O)CBr)CC1 (stereo unspecified) | 31.2 | 19.8 | – | – | – | – | – | –
CC1(NC(=O)CBr)CCC(C(C)(C)NCC(O)COc2cccc3[nH]c(C#N)cc23)CC1 (stereo unspecified) | 1.83 | 2.78 | 1.6 | 1.2 | – | – | – | –
CC1(NCC(O)COc2cccc3[nH]c(C#N)cc23)CCC(C(C)(C)NC(=O)CBr)CC1 (stereo unspecified) | 0.61 | 1.49 | 1.6 | 1 | 95 | 11 | 89 | –
CC1(NC(=O)CBr)CCC(C(C)(C)NCC(O)COc2cccc3[nH]ccc23)CC1 (stereo unspecified) | 22.6 | 4.46 | – | 1.4 | – | – | – | 2
C=CCc1ccccc1OCC(O)CNC1(C)CCC(C(C)(C)NC(=O)CBr)CC1 (stereo unspecified) [BROMOACETYL ALPRENOLOL MENTHANE] | 391 | 126 | – | – | – | – | – | –
CC1(NCC(O)COc2cccc3[nH]ccc23)CCC(C(C)(C)NC(=O)CBr)CC1 (stereo unspecified) | 0.46 | 1.34 | – | – | – | – | – | –
